From patent publication US5869500A, “Pyridone compounds useful in treating Alzheimer's disease” (Hoffmann-La Roche Inc., priority 1996, dated 1999)

System: Aβ production in HEK cells over-expressing mutated β-APP (SFAD)
Assay: Aβ production inhibition, sandwich-ELISA in HEK cells, over-expressed mutated β-APP (SE-SFAD)
Assay type: cell-based, human
Settings: for IC50: based on the respective plateau of maximum inhibition; for Emax: maximum inhibition plateau, read-out: SE-SFAD max. inhibition %
Protocol: The effect of test substances on the inhibition of Aβ-amyloid production can be measured in the supernatant of cell cultures of β-APP expressed cells using ELISA tests or other quantitative determination methods for β-APP degradation products. Typically, 8×10^5 cells (e.g. HEK cells, which express recombinant human β-APP variants) are plated out in each well of a culture dish having 24 wells in growth media such as e.g. OPTIMEM (Gibco) and the test compound is then added. After an incubation period of 24 to 48 hours at 37° C. in a 10% CO2 atmosphere the supernatant is removed from the cell cultures and the β-APP degradation products (e.g. Aβ or β-[…]) are determined with the aid of ELISA (or sandwich ELISA) analysis or by means of quantitative immunoprecipitation (after metabolic radiolabelling of the cell proteins). Typically, 300 μl of the cell supernatant are tested according to the state of the art for ELISA tests in culture dishes having 96 wells. In the case of sandwich ELISA for Aβ, the binding antibody can be directed against the first 16 amino acids of Aβ-peptide (e.g. 6E10 Senetek, Maryland Heights, Mo.) and the detection antibody can be directed against amino acids 17-40 or 17-42 of Aβ and carries a detection system such as e.g. peroxidase. A simple ELISA test with an antibody, e.g. 22C11 (Boehringer Mannheim), can be used as the test for […]; the second antibody can be an anti-(mouse) Ig having a detection system, such as e.g. peroxidase. The peroxidase reaction can be carried out e.g. using a TMB substrate (BioRAD) and the measurements can be carried out at 650 nm using an ELISA reading apparatus. […] SE-SFAD signifies the Aβ production inhibition measured using sandwich-ELISA in HEK cells, SFAD signifies over-expressed mutated β-APP, and SE-WT signifies the Aβ production inhibition measured using sandwich-ELISA in HEK cells which over-express Wild type β-APP. The IC50 values are based on the respective plateau of maximum inhibition.

[1] = Homo sapiens, HEK293, HEK cells

Row | Structure (SMILES) | IC50 [1] [nM] | Emax [1] [%] | IC50 (HEK cells) [nM]
1 | COCCN(C(=O)c1cc(-c2ccc(Oc3ccccc3)cc2)c(=O)n2ccc3ccsc3c12)c1ccccc1 [Compound 101, 7--Oxo-8-(4-phenoxy-phenyl)-7H-thieno[2,3-a]quinolizine-10-carboxylic acid (2-methoxy-ethyl)-phenyl-amide] | 900 | 100 | –
2 | COCCN(C(=O)c1cc(-c2ccc(OCc3ccccc3)cc2)c(=O)n2ccc3c(ncn3C)c12)c1ccccc1 [Compound 102, 8-(4-Benzyloxy-phenyl)-3-methyl-7-oxo-3,7-dihydro-imidazo [4,5-a]quinolizine-10-carboxylic acid (2-methoxy-ethyl)-phenyl-amide] | 3600 | 80 | –
3 | COCCN(CCOC)C(=O)c1cc(-c2ccc(OCc3ccccc3)cc2)c(=O)n2ccc3c(ncn3C)c12 [Compound 103, 8-(4-Benzyloxy-phenyl)-3-methyl-7-oxo-3,7-dihydro-imidazo[4,5-a]-quinolizine-10-carboxylic acid bis-(2-methoxy-ethyl)-amide] | 5000 | 35 to 55 | –
4 | COCCN(CC1CC1)C(=O)c1cc(-c2ccc(OCc3ccccc3)cc2)c(=O)n2ccc3c(ncn3C)c12 [Compound 104, 8-(4-Benzyloxy-phenyl)-3-methyl-7-oxo-3,7-dihydro-imidazo [4,5-a]-quinolizine-10-carboxylic acid cyclopropylmethyl-(2-methoxy-ethyl)-amide] | 3000 | 100 | –
5 | CCCN(CCOC)C(=O)c1cc(-c2ccc(OCc3ccccc3)cc2)c(=O)n2ccc3c(ncn3C)c12 [Compound 105, 8-(4-Benzyloxy-phenyl)-3-methyl-7-oxo-3,7-dihydro-imidazo[4,5-a]-quinolizine-10-carboxylic acid (2-methoxy-ethyl)-propyl-amide] | 5000 | 50 | –
6 | CCN(CCOC)C(=O)c1cc(-c2ccc(C(C)(C)C)cc2)c(=O)n2ccc3ccsc3c12 [Compound 107, 8-(4-tert-Butyl-phenyl)-7-oxo-7H-thieno[2,3-a]quinolizine-10-carboxylicacid ethyl-(2-methoxy-ethyl)-amide] | 3000 | 20 | –
7 | COCCNC(=O)c1cc(-c2ccc(C(C)(C)C)cc2)c(=O)n2ccc3ccsc3c12 [Compound 110, 8-(4-tert-Butyl-phenyl)-7-oxo-7H-thieno[2,3-a]quinolizine-10-carboxylicacid (2-methoxy-ethyl)-amide] | 6200 | 95 | –
8 | COCCN(C(=O)c1cc(-c2ccc(C(C)(C)C)cc2)c(=O)n2ccc3ccsc3c12)c1ccccc1 [Compound 111, 8-(4-tert-Butyl-phenyl)-7-oxo-7H-thieno[2,3-a]quinolizine-10-carboxylicacid (2-methoxy-ethyl)-phenyl-amide] | 2500 | 100 | –
9 | COCCN(CC1CC1)C(=O)c1cc(-c2ccc(C(C)(C)C)cc2)c(=O)n2ccc3ccsc3c12 [Compound 112, 8-(4-tert-Butyl-phenyl)-7-oxo-7H-thieno[2,3-a]quinolizine-10-carboxylicacid cyclopropylmethyl-(2-methoxy-ethyl)-amide] | 1500 | 100 | –
10 | COCCN(Cc1ccccc1)C(=O)c1cc(-c2ccc(C(C)(C)C)cc2)c(=O)n2ccc3ccsc3c12 [Compound 113, 8-(4-tert-Butyl-phenyl)-7-oxo-7H-thieno[2,3-a]quinolizine-10-carboxylicacid benzyl-(2-methoxy-ethyl)-amide] | 3000 | 100 | –
11 | COC(=O)c1cc(-c2ccccc2OC)c(=O)n2ccc3ccsc3c12 [Compound 114, Methyl 8-(2-methoxy-phenyl)-7-oxo-7H-thieno[2,3-a]quinolizine-10-carboxylate] | – | 70 | 6300
12 | COCCNC(=O)c1cc(-c2ccccc2OC)c(=O)n2ccc3ccsc3c12 [Compound 115, 8-(2-Methoxy-phenyl)-7-oxo-7H-thieno[2,3-a]quinolizine-10-carboxylic acid (2-methoxy-ethyl)-amide] | 20000 | 50 | –
13 | COCCN(CC1CC1)C(=O)c1cc(-c2ccccc2OC)c(=O)n2ccc3ccsc3c12 [Compound 119, 8-(2-Methoxy-phenyl)-7-oxo-7H-thieno[2,3-a]quinolizine-10-carboxylic acid cyclopropylmethyl-(2-methoxy-ethyl)-amide] | 1600 | 60 to 80 | –
14 | COCCN(Cc1ccccc1)C(=O)c1cc(-c2ccccc2OC)c(=O)n2ccc3ccsc3c12 [Compound 120, 8-(2-Methoxy-phenyl)-7-oxo-7H-thieno[2,3-a]quinolizine-10-carboxylic acid benzyl-(2-methoxy-ethyl)-amide] | 1800 | 100 | –
15 | COCCN(C(=O)c1cc(-c2ccccc2OC)c(=O)n2ccc3ccsc3c12)c1ccccc1 [Compound 121, 8-(2-Methoxy-phenyl)-7-oxo-7H-thieno[2,3-a]quinolizine-10-carboxylic acid (2-methoxy-ethyl)-phenyl-amide] | 1800 | 100 | –
16 | CCN(CCOC)C(=O)c1cc(-c2ccccc2OC)c(=O)n2ccc3ccsc3c12 [Compound 122, 8-(2-Methoxy-phenyl)-7-oxo-7H-thieno[2,3-a]quinolizine-10-carboxylic acidethyl-(2-methoxy-ethyl)-amide] | 8000 | 25 | –
17 | COc1cccc(-c2cc(C(=O)Nc3ccc(OC)c(OC)c3)c3c4sccc4ccn3c2=O)c1 [Compound 123, 8-(3-Methoxy-phenyl)-7-oxo-7H-thieno[2,3-a]quinolizine-10-carboxylic acid (3,4-dimethoxy-phenyl)-amide] | 800 | 100 | –
18 | COc1cccc(-c2cc(C(=O)Nc3ccncc3)c3c4sccc4ccn3c2=O)c1 [Compound 124, 8-(3-Methoxy-phenyl)-7-oxo-7H-thieno[2,3-a]quinolizine-10-carboxylic acid pyridin-4yl-amide] | 800 | 35 | –
19 | COCCN(Cc1cccs1)C(=O)c1cc(-c2cccc(OC)c2)c(=O)n2ccc3ccsc3c12 [Compound 125, 8-(3-Methoxy-phenyl)-7-oxo-7H-thieno[2,3-a]quinolizine-10-carboxylic acid (2-methoxy-ethyl)-thiophen-2-yl-methyl-amide] | 2000 | 10 | –
20 | C#CCN(C(=O)c1cc(-c2cccc(OC)c2)c(=O)n2ccc3ccsc3c12)c1ccccc1 [Compound 127, 8-(3-Methoxy-phenyl)-7-oxo-7H-thieno[2,3-a]quinolizine-10-carboxylic acid phenyl-prop-2-ynyl-amide] | 800 | 100 | –
21 | COc1ccccc1-c1cc(C(=O)NCc2ccccc2)c2c3sccc3ccn2c1=O [Compound 135, 8-(2-Methoxy-phenyl)-7-oxo-7H-thieno[2,3-a]quinolizine-10-carboxylic acid benzyl-amide] | 3000 | 100 | –
22 | COCCN(Cc1ccco1)C(=O)c1cc(-c2ccccc2OC)c(=O)n2ccc3ccsc3c12 [Compound 139, 8-(2-Methoxy-phenyl)-7-oxo-7H-thieno[2,3-a]quinolizine-10-carboxylic acid (furan-2-yl-methyl)-(2-methoxy-ethyl)-amide] | 3300 | 100 | –
23 | COCCN(Cc1cccs1)C(=O)c1cc(-c2ccccc2OC)c(=O)n2ccc3ccsc3c12 [Compound 140, 8-(2-Methoxy-phenyl)-7-oxo-7H-thieno[2,3-a]quinolizine-10-carboxylic acid (2-methoxy-ethyl)-thiophen-2-yl-methyl-amide] | 2500 | 30 to 100 | –
24 | COc1ccc(NC(=O)c2cc(-c3ccccc3OC)c(=O)n3ccc4ccsc4c23)cc1 [Compound 142, 8-(2-Methoxy-phenyl)-7-oxo-7H-thieno[2,3-a]quinolizine-10-carboxylic acid (4-methoxy-phenyl)-amide] | 1500 | 20 to 100 | –
25 | C#CCN(C(=O)c1cc(-c2ccccc2OC)c(=O)n2ccc3ccsc3c12)c1ccccc1 [Compound 143, 8-(2-Methoxy-phenyl)-7-oxo-7H-thieno[2,3-a]quinolizine-10-carboxylic acid phenyl-prop-2-ynyl-amide] | 5500 | 40 to 100 | –
26 | CCN(CCOC)C(=O)c1cc(-c2ccc(OC)cc2)c(=O)n2ccc3ccsc3c12 [Compound 144, 8-(4-Methoxy-phenyl)-7-oxo-7H-thieno[2,3-a]quinolizine-10-carboxylic acid ethyl-(2-methoxy-ethyl)-amide] | 2000 | 40 | –
27 | COCCN(CCOC)C(=O)c1cc(-c2ccc(OC)cc2)c(=O)n2ccc3ccsc3c12 [Compound 145, 8-(4-Methoxy-phenyl)-7-oxo-7H-thieno[2,3-a]quinolizine-10-carboxylic acid bis-(2-methoxy-ethyl)-amide] | 5000 | 100 | –
